Experimental data taken from patent publication US20260207614A1, “IRAK4 DEGRADERS AND USES THEREOF” (Kymera Therapeutics, Inc., priority 2022, published 2026).
“Also recorded” adds a separate entry of the source.

Key:
[1] = system: IRAK4; assay: In vitro IRAK4 degradation, monkey PBMCs; format: cell-based
[2] = Permeability; format: in vitro ADME
Text: In in vivo pharmacokinetic (PK) studies conducted in rats, dogs, and monkeys.
Compound A can be classified tentatively as a BCS II compound.

[3] = Plasma protein binding and red blood cell partitioning; format: in vitro ADME, nonclinical species and humans
[4] = Excretion study in bile duct-cannulated (BDC) rats; format: in vivo
[5] = target: CYP3A4 (Homo sapiens, UniProt P08684); assay: In vitro drug-drug interaction and metabolism studies, CYP3A4; format: in vitro ADME
Chain of CYP3A4 (P08684 whole entry): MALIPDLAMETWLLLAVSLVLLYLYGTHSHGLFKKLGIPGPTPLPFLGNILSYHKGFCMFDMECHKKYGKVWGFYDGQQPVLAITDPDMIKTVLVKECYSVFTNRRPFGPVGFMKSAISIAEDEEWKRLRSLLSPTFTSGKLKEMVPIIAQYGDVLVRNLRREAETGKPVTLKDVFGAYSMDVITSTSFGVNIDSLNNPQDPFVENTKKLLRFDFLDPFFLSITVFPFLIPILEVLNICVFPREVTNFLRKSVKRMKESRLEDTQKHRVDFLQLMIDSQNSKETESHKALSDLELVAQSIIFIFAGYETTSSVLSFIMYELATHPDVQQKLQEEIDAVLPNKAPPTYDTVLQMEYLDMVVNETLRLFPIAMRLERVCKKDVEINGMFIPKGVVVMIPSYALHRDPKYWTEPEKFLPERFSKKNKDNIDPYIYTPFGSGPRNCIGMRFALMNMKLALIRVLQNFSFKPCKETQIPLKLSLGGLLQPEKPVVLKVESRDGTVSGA
Text: Metabolites generated in liver microsomes from humans were also detected in those from rat, dog, and monkey. In the in vitro drug-drug interaction studies.

[6] = clinical; settings: human, in vivo
Text: The safety margin decreases as the dose increases.

[7] = system: R848 (TLR7)-stimulated cytokine induction in whole blood; assay: Phase 1 SAD ex vivo R848-stimulated cytokine induction in whole blood; design: species or system human
[8] = Phase 1 SAD safety and tolerability; format: in vivo, human
Text: Part A: Part A is a double-blind, randomized, placebo-controlled, SAD, sequential group study in 56 adult HVs, divided in 7 cohorts of eight HVs each. Seven ascending single doses (1 dose level per cohort) will be investigated. One or more additional cohorts may be added, as needed.
• Treatment-emergent (serious) adverse events ([S]AEs) • Concomitant medication • Clinical laboratory tests • Hematology • Coagulation • Chemistry • Urinalysis and urine microscopy • Vital signs • Pulse Rate (bpm) • Systolic blood pressure (BP) (mm Hg) • Diastolic BP (mm Hg) • Respiratory rate • Temperature • Safety electrocardiogram and Holter monitoring • Heart Rate (bpm). PR, QRS, QT, QTcF
All data will be fully listed.

[9] = Phase 1 MAD Compound A concentration in skin; format: in vivo; settings: human, oral, Day 14, once daily dosing, read-out: Ctrough (pre-dose) levels in skin relative to plasma
[10] = system: ex vivo proinflammatory cytokine induction by R848 and LPS in whole blood; assay: Phase 1 MAD ex vivo cytokine induction by R848 and LPS in whole blood; design: species or system human; settings: daily up to about 200 mg, Day 7-14, FIG. 16
Text: In some embodiments, the cytokines include IFN-γ, IL-12, IL-1β, IL-10, IL-6, TNF-α, IL-8, IL-17, and IL-23.

[11] = system: patients with hidradenitis suppurativa (HS); assay: Phase 1 Part C clinical efficacy in hidradenitis suppurativa; format: in vivo, human; settings: for ΔAN Count / ΔPain NRS / ΔPeak Pruritis NRS / Responders: AN Count 0/1/2 / Responders: HiSCR50 / Responders: HiSCR75 / Responders: Pain NRS30: HS; for ΔAN Count: deepest reduction across Days 28 through 42; for ΔPain NRS / ΔPeak Pruritis NRS: deepest reduction, past week; for Responders: AN Count 0/1/2 / Responders: HiSCR50 / Responders: HiSCR75 / Responders: Pain NRS30: highest response across Days 28 through 42
Text: Baseline Characteristics and Disposition: A total of 21 patients were enrolled in the trial, including 13 HS and 8 AD patients, with median age 31-40 years (13 female, 8 male). Disease severity for HS was moderate (10), severe (1) and very severe (2) and for AD was mild (1), moderate (5) and severe (2). One HS and 1 AD patient withdrew from treatment early due to personal reasons, resulting in 12 HS and 7 AD patients evaluable for PD and clinical efficacy.
HS clinical endpoints collected in the study included AN count, Pain NRS. Pruritus NRS and HS-PGA. […] Analyses were done for all patients, including very severe (n=12), and for patients with only moderate to severe disease (n=10).

[12] = R848, whole blood, 24-48 hours, Cohort 7
[13] = blinded SAD, study treatment related, per Investigator

Cn1c(=O)n([C@@H]2CCC(=O)NC2=O)c2cccc(C#CCOC3CCN(C[C@H]4CC[C@H](n5cc(NC(=O)c6cnn7ccc(N8C[C@H]9C[C@@H]8CO9)nc67)c(C(F)F)n5)CC4)CC3)c21 [Compound A, 5-((1R,4R)-2-oxa-5-azabicyclo[2.2.1]heptan-5-yl)-N-(3-(difluoromethyl)-1-((1r,4R)-4-((4-((3-(1-(2,6-dioxopiperidin-3-yl)-3-methyl-2-oxo-2,3-dihydro-1H-benzo[d]imidazol-4-yl)prop-2-yn-1-yl)oxy)piperidin-1-yl)methyl)cyclohexyl)-1H-pyrazol-4-yl)pyrazolo[1,5-a]pyrimidine-3-carboxamide]
DC50 [1]: […] | permeability [2]: medium; also recorded: moderate | partitioning into red blood cells [3]: did not significantly partition into red blood cells | plasma protein binding ([3]; across nonclinical species and humans): highly bound | biliary and intestinal excretion as parent drug [4]: minor to moderate | renal clearance [4]: negligible | metabolizing enzyme [5]: primarily metabolized by CYP3A4 | time dependent inhibition (TDI) of CYP3A4 ([5]; in vitro): potential time dependent inhibition (TDI) | half-life [6]: 25 to 40 h | inter-subject variability in exposure [6]: low to moderate | AUC ([6]; po, 25 mg): 112 ng·h/mL | Cmax ([6]; po, 25 mg): 3.49 ng/mL | Tmax ([6]; po, 25 mg): 8 h | half-life ([6]; po, 25 mg): 25.2 h | AUC ([6]; po, 75 mg): 288 ng·h/mL | Cmax ([6]; po, 75 mg): 9.08 ng/mL | Tmax ([6]; po, 75 mg): 7 h | half-life ([6]; po, 75 mg): 28.7 h | AUC ([6]; po, 150 mg): 483 ng·h/mL | Cmax ([6]; po, 150 mg): 12.7 ng/mL | Tmax ([6]; po, 150 mg): 9 h | half-life ([6]; po, 150 mg): 31.6 h | AUC ([6]; po, 300 mg): 848 ng·h/mL | Cmax ([6]; po, 300 mg): 17.4 ng/mL | Tmax ([6]; po, 300 mg): 8 h | half-life ([6]; po, 300 mg): 26.6 h | AUC ([6]; po, 600 mg): 1520 ng·h/mL | Cmax ([6]; po, 600 mg): 24.2 ng/mL | Tmax ([6]; po, 600 mg): 12 h | half-life ([6]; po, 600 mg): 30.1 h | AUC ([6]; po, 1000 mg): 1950 ng·h/mL | Cmax ([6]; po, 1000 mg): 27.8 ng/mL | Tmax ([6]; po, 1000 mg): 20 h | half-life ([6]; po, 1000 mg): 40.2 h | AUC ([6]; po, 1600 mg): 1920 ng·h/mL | Cmax ([6]; po, 1600 mg): 27.3 ng/mL | Tmax ([6]; po, 1600 mg): 24 h | half-life ([6]; po, 1600 mg): 36.4 h | Mean Maximum Percent Change from Baseline in ex vivo IFNγ induction [7, 12]: −97%^2 | Mean Maximum Percent Change from Baseline in ex vivo IL1β induction [7, 12]: −92%^1 | Mean Maximum Percent Change from Baseline in ex vivo IL6 induction [7, 12]: −88%^1 | Mean Maximum Percent Change from Baseline in ex vivo IL8 induction [7, 12]: −54%^ | Mean Maximum Percent Change from Baseline in ex vivo IL10 induction [7, 12]: −89%^1 | Mean Maximum Percent Change from Baseline in ex vivo IL12 induction [7, 12]: −93%^1 | Mean Maximum Percent Change from Baseline in ex vivo IL17 induction [7, 12]: −79%^1 | Mean Maximum Percent Change from Baseline in ex vivo TNFα induction [7, 12]: −88%^2 | mean maximum ex vivo cytokine inhibition ([7]; SAD, R848- or LPS-mediated induction, whole blood, 24-48 h post-dose): up to 97% | inhibition of R848 or LPS induction of 8 different pro-inflammatory cytokines ([7]; SAD, whole blood, maxima across cytokines): 79-97% | Abdominal pain, Severity ([8]; Cohort SAD 5): Mild | Diarrhea, Severity ([8]; Cohort SAD 5): Mild | Headache, Severity ([8]; Cohort SAD 5): Mild (x2) | Palpitations, Severity ([8]; Cohort SAD 5): Mild | Headache, Severity ([8]; Cohort SAD 5, SAD 5 FE, SAD 6): Moderate (x3) | Diarrhea, Severity ([8]; Cohort SAD 5 FE): Mild | Nausea, Severity ([8]; Cohort SAD 5 FE): Mild | Vomiting, Severity ([8]; Cohort SAD 5 FE): Mild (x2) | Muscle weakness, Severity ([8]; Cohort SAD 6): Mild | Myalgia, Severity ([8]; Cohort SAD 6): Mild | Nausea, Severity ([8]; Cohort SAD 6): Mild (x2) | ECG changes ([8]; SAD): No significant ECG changes | QTcF prolongation ([8]; SAD): no clinically significant QTcF prolongation | serious adverse events ([8]; SAD): no serious adverse events; also recorded: No SAEs | AST elevation ([8]; SAD 5, n=1, resolution ~Day 21): 3.8 ×ULN | ALT elevation ([8]; SAD 5, n=1, slow resolution to baseline): 2.5 ×ULN | Abdominal pain, #AEs (subjects) [8, 13]: 1 | Diarrhea, #AEs (subjects) [8, 13]: 2 (2) | Headache, #AEs (subjects) [8, 13]: 5 (4) | Muscle weakness, #AEs (subjects) [8, 13]: 1 | Myalgia, #AEs (subjects) [8, 13]: 1 | Nausea, #AEs (subjects) [8, 13]: 3 (3) | Palpitations, #AEs (subjects) [8, 13]: 1 | Vomiting, #AEs (subjects) [8, 13]: 2 (1) | safety and tolerability ([8]; single doses, healthy volunteers): safe and well-tolerated | Kp at 14 day [9]: ~10 | inhibition of IFN-γ [10]: up to 85% | inhibition of IL-1β [10]: up to 68% | inhibition of IL-6 [10]: up to 54% | inhibition of IL-8 [10]: up to 46% | inhibition of IL-10 [10]: up to 50% | inhibition of IL-12 [10]: up to 72% | inhibition of IL-17 [10]: up to 46% | inhibition of TNF-α [10]: up to 59% | disease severity in patient HS-10 ([11]; FIG. 36): from moderate to mild | AN count of 0/1/2 response rate ([11]; HS patients, FIG. 30): 42-50% | AN count reduction ([11]; HS patients, FIG. 30): 46-51% | HiSCR50 response rate ([11]; HS patients, FIG. 31): 42-50% | reduction in Pain NRS ([11]; HS patients, FIG. 32): 49-50% | response rate in Pain NRS30 ([11]; HS patients, FIG. 32): 50-60% | reduction in Peak Pruritus NRS ([11]; HS patients, FIG. 33): 62-68% | ΔAN Count ([11]; All Patients (n = 12)): −46% | ΔPain NRS ([11]; All Patients (n = 12)): −49% | ΔPeak Pruritis NRS ([11]; All Patients (n = 12)): −62% | Responders: AN Count 0/1/2 ([11]; All Patients (n = 12)): 42% | Responders: HiSCR50 ([11]; All Patients (n = 12)): 42% | Responders: HiSCR75 ([11]; All Patients (n = 12)): 25% | Responders: Pain NRS30 ([11]; All Patients (n = 12)): 50% | ΔAN Count ([11]; Moderate/Severe (n = 10)): −51% | ΔPain NRS ([11]; Moderate/Severe (n = 10)): −55% | ΔPeak Pruritis NRS ([11]; Moderate/Severe (n = 10)): −68% | Responders: AN Count 0/1/2 ([11]; Moderate/Severe (n = 10)): 50% | Responders: HiSCR50 ([11]; Moderate/Severe (n = 10)): 50% | Responders: HiSCR75 ([11]; Moderate/Severe (n = 10)): 50% | Responders: Pain NRS30 ([11]; Moderate/Severe (n = 10)): 60% | HS-PGA scores ([11]; all HS patients): stable or improved (5 of 12) | lesions and symptoms in patient HS-3 ([11]; moderate disease at baseline, FIG. 35): complete clearing of lesions and symptoms
